Data reported in patent US11807644B2 (PMV Pharmaceuticals, Inc., priority 2020, dated 2023).

Each compound was assayed against T1, recombinant His-tag Y220C p53 DBD protein (Homo sapiens, UniProt P04637, Y220C) (assay: In vitro DNA binding activity assay (TR-FRET): binding of His-tag Y220C p53 DBD to biotin-labeled consensus DNA). Settings: SC150 = concentration to increase DNA binding by […], His-tag Y220C p53 DBD, biotin-labeled consensus DNA.
T1 construct: recombinant His-tag Y220C p53 DBD protein (amino acids #˜94-312)
Type: biochemical
Experimental: DNA binding activity of the compounds was measured using a TR-FRET (Time-Resolved Fluorescence Resonance Energy Transfer) assay in which recombinant His-tag Y220C p53 DBD protein binds to biotin-labeled consensus DNA. Binding of recombinant His-tag Y220C p53 DBD protein and biotin-labeled consensus DNA was registered by the FRET (fluorescence resonance energy transfer) between allophycocyanin (APC) conjugated anti-His tag antibody and Europium-(Eu) conjugated Streptavidin.
The compounds of TABLES 1-9 (2 mM stock in dimethylsulfoxide) were diluted 3-fold in series in dimethylsulfoxide. 1.2 μL of a compound solution was added to each well of 384-well polypropylene black plates (NUNC). Thirty μL per well of 181 nM recombinant His-tag Y220C p53 DBD protein (amino acids #˜94-312; SEQ ID NO: 1) and 6.1 nM of APC conjugated anti-His tag antibody (Columbia Biosciences) in ice-cold Assay Buffer 1 (50 mM Tris-HCl, pH 7.4, 75 mM KCl, 0.75 mM DTT and 0.2 mg/ml, BSA) were added. As a background control. 30 μL of Assay Buffer 1 containing 6.1 nM of APC anti-His antibody (No Y220C protein) was also added into a second set of serially diluted compound plates. The samples were spun by centrifuge at 1,200 rpm (Eppendorf 5810R Plate centrifuge) for 1 minute and incubated at room temperature (20° C.) for 15 min. The samples were then further incubated at either 27° C. or 29° C. for 60 min. […] The samples were spun by centrifuge at 1,200 rpm for 1 min and incubated at room temperature (20° C.) for 20 min. Assay signals were monitored by reading excitation at 340 nm, and emission fluorescence at 615 nm and 665 nm on an Envision® reader. Normalized TR-FRET (time-resolved fluorescence resonance energy transfer) assay signal (Rn) was calculated by the formula: Rn=[(A−Ba−C×(D−Bd))/(D−Bd)]×(D−Bd) Wherein: • A is the fluorescence intensity of the sample at 665 nm; • D is the fluorescence intensity of the sample at 615 nm; • Ba and Bd are plate backgrounds at 665 nm and 615 nm, respectively; and • Dc is the fluorescence intensity of 0.67 nM Eu-SA in the assay buffer at 615 nm.
The cross-talk factor (C) was determined by the following formula: C=(Ac−Ba)/(Dc−Bd) wherein Ac is the fluorescence intensity of 0.67 nM Europium (Eu) conjugated Streptavidin in the assay buffer at 665 nm.

| Structure (SMILES) | Y220C SC150 (μM) |
| --- | --- |
| CCOCC1(n2ccc(C(=O)NCc3nc(-c4cc5c(N[C@@H]6CCN(C)C[C@@H]6F)cccc5n4CC(F)(F)F)no3)c2)CC1 [Compound 481B, 1-[1-(ethoxymethyl)cyclopropyl]-N-{[3-(4-{[(3S,4R)-3-fluoro-1-methylpiperidin-4-yl]amino}-1-(2,2,2-trifluoroethyl)-1H-indol-2-yl)-1,2,4-oxadiazol-5-yl]methyl}-1H-pyrrole-3-carboxamide] | * (* = 0 μM ≤ SC150 < 0.1 μM) |
| CC(=O)NCc1nc(-c2cc3c(N[C@@H]4CCN(C)C[C@@H]4F)cccc3n2CC(F)(F)F)no1 [Compound 228B, N-{[3-(4-{[(3S,4R)-3-fluoro-1-methylpiperidin-4-yl]amino}-1-(2,2,2-trifluoroethyl)-1H-indol-2-yl)-1,2,4-oxadiazol-5-yl]methyl}acetamide] | * (* = 0 μM ≤ SC150 < 0.1 μM) |
| COc1cc(S(C)(=O)=O)ccc1NCc1ccc(-c2cc3c(N[C@H]4CCN(C)C[C@H]4F)cccc3n2CC(F)(F)F)s1 (racemic) [Compound 101B, (+/−)-N-[(3R,4S)-3-fluoro-1-methylpiperidin-4-yl]-2-(5-{[(4-methanesulfonyl-2-methoxyphenyl)amino]methyl}thiophen-2-yl)-1-(2,2,2-trifluoroethyl)-1H-indol-4-amine] | * (* = 0 μM ≤ SC150 < 0.1 μM) |
| CN1CC[C@@H](Nc2cccc3c2cc(-c2noc(CNC(=O)c4csc(C5(C)CCOCC5)n4)n2)n3CC(F)(F)F)[C@@H](F)C1 [Compound 474B, N-{[3-(4-{[(3S,4R)-3-fluoro-1-methylpiperidin-4-yl]amino}-1-(2,2,2-trifluoroethyl)-1H-indol-2-yl)-1,2,4-oxadiazol-5-yl]methyl}-2-(4-methyloxan-4-yl)-1,3-thiazole-4-carboxamide] | * (* = 0 μM ≤ SC150 < 0.1 μM) |
| CN1CC[C@@H](Nc2cccc3c2cc(-c2noc(CNC(=O)c4ccc(N5CCC(F)(F)CC5)cc4)n2)n3CC(F)(F)F)[C@@H](F)C1 [Compound 256B, 4-(4,4-difluoropiperidin-1-yl)-N-{[3-(4-{[(3S,4R)-3-fluoro-1-methylpiperidin-4-yl]amino}-1-(2,2,2-trifluoroethyl)-1H-indol-2-yl)-1,2,4-oxadiazol-5-yl]methyl}benzamide] | * (* = 0 μM ≤ SC150 < 0.1 μM) |
| CC(=O)N1CCC(Nc2cccc3c2cc(-c2noc(CNC(=O)C4CC4)n2)n3CC(F)(F)F)CC1 [Compound 161B, N-[(3-{4-[(1-acetylpiperidin-4-yl)amino]-1-(2,2,2-trifluoroethyl)-1H-indol-2-yl}-1,2,4-oxadiazol-5-yl)methyl]cyclopropanecarboxamide] | * (* = 0 μM ≤ SC150 < 0.1 μM) |
| Cn1cc(C(=O)NCc2nc(-c3cc4c(N[C@H]5CCN(C(C)(C)C)C[C@H]5F)cccc4n3CC(F)(F)F)no2)cn1 [Compound 406B, N-{[3-(4-{[(3R,4S)-1-tert-butyl-3-fluoropiperidin-4-yl]amino}-1-(2,2,2-trifluoroethyl)-1H-indol-2-yl)-1,2,4-oxadiazol-5-yl]methyl}-1-methyl-1H-pyrazole-4-carboxamide] | * (* = 0 μM ≤ SC150 < 0.1 μM) |
| CN1CC[C@@H](Nc2cccc3c2cc(-c2noc(CNC(=O)c4cccnc4)n2)n3CC(F)(F)F)[C@@H](F)C1 [Compound 202B, N-{[3-(4-{[(3S,4R)-3-fluoro-1-methylpiperidin-4-yl]amino}-1-(2,2,2-trifluoroethyl)-1H-indol-2-yl)-1,2,4-oxadiazol-5-yl]methyl}pyridine-3-carboxamide] | * (* = 0 μM ≤ SC150 < 0.1 μM) |
| COCc1cc(C(=O)NCc2nc(-c3cc4c(N[C@@H]5CCN(C)C[C@@H]5F)cccc4n3CC(F)(F)F)no2)cs1 [Compound 464B, N-{[3-(4-{[(3S,4R)-3-fluoro-1-methylpiperidin-4-yl]amino}-1-(2,2,2-trifluoroethyl)-1H-indol-2-yl)-1,2,4-oxadiazol-5-yl]methyl}-5-(methoxymethyl)thiophene-3-carboxamide] | * (* = 0 μM ≤ SC150 < 0.1 μM) |
| COc1cc(S(C)(=O)=O)ccc1NCc1nnc(-c2cc3c(N[C@H]4CCN(C)C[C@H]4F)cccc3n2CC(F)(F)F)s1 (racemic) [Compound 27B, (+/−)-N-[(3R,4S)-3-fluoro-1-methylpiperidin-4-yl]-2-(5-{[(4-methanesulfonyl-2-methoxyphenyl)amino]methyl}-1,3,4-thiadiazol-2-yl)-1-(2,2,2-trifluoroethyl)-1H-indol-4-amine] | ** (** = 0.1 μM ≤ SC150 < 0.5 μM) |
| CN1CC[C@@H](Nc2cccc3c2cc(-c2nnc(CNC(=O)c4ccn(C5(C)CCOCC5)c4)s2)n3CC(F)(F)F)[C@@H](F)C1 [Compound 287B, N-{[5-(4-{[(3S,4R)-3-fluoro-1-methylpiperidin-4-yl]amino}-1-(2,2,2-trifluoroethyl)-1H-indol-2-yl)-1,3,4-thiadiazol-2-yl]methyl}-1-(4-methyloxan-4-yl)-1H-pyrrole-3-carboxamide] | * (* = 0 μM ≤ SC150 < 0.1 μM) |
| CN1CC[C@@H](Nc2cccc3c2cc(-c2noc(CNC(=O)c4csc(Cl)c4)n2)n3CC(F)(F)F)[C@@H](F)C1 [Compound 213B, 5-chloro-N-{[3-(4-{[(3S,4R)-3-fluoro-1-methylpiperidin-4-yl]amino}-1-(2,2,2-trifluoroethyl)-1H-indol-2-yl)-1,2,4-oxadiazol-5-yl]methyl}thiophene-3-carboxamide] | * (* = 0 μM ≤ SC150 < 0.1 μM) |
| COc1cc(S(C)(=O)=O)ccc1NCc1nnc(-c2cc3c(N[C@H]4CCN(C)C[C@@H]4F)cccc3n2CC(F)(F)F)s1 (racemic) [Compound 28B, (+/−)-N-[(3R,4R)-3-fluoro-1-methylpiperidin-4-yl]-2-(5-{[(4-methanesulfonyl-2-methoxyphenyl)amino]methyl}-1,3,4-thiadiazol-2-yl)-1-(2,2,2-trifluoroethyl)-1H-indol-4-amine] | * (* = 0 μM ≤ SC150 < 0.1 μM) |
| CC(C)(C)N1CC[C@@H](Nc2cccc3c2cc(-c2noc(CNC(=O)c4cnn(C(C)(C)C)c4)n2)n3CC(F)(F)F)[C@H](F)C1 [Compound 402B, 1-tert-butyl-N-{[3-(4-{[(3R,4R)-1-tert-butyl-3-fluoropiperidin-4-yl]amino}-1-(2,2,2-trifluoroethyl)-1H-indol-2-yl)-1,2,4-oxadiazol-5-yl]methyl}-1H-pyrazole-4-carboxamide] | * (* = 0 μM ≤ SC150 < 0.1 μM) |

Same assay, conditions: concentration to increase DNA binding by […], incubated at either 27° C. or 29° C. for 60 min

| Structure (SMILES) | SC150 (μM) |
| --- | --- |
| CN1CC[C@H](Nc2cccc3c2cc(-c2ccc(CNC4CC4)cc2)n3CC(F)(F)F)[C@H](F)C1 (racemic) [Compound 42A, (+/−)-2-{4-[(cyclopropylamino)methyl]phenyl}-N-[(3R,4S)-3-fluoro-1-methylpiperidin-4-yl]-1-(2,2,2-trifluoroethyl)-1H-indol-4-amine] | ++++ (++++ = 10 μM ≤ SC150 < 35 μM) |
| CNC(=O)c1ccc(-c2cc3c(NC4CCS(=O)(=O)CC4)cccc3n2CC(F)(F)F)cc1 [Compound 5A, 4-{4-[(1,1-dioxo-1λ^6-thian-4-yl)amino]-1-(2,2,2-trifluoroethyl)-1H-indol-2-yl}-N-methylbenzamide] | ++++ (++++ = 10 μM ≤ SC150 < 35 μM) |
| N#Cc1ccc(C(=O)NCc2ccc(-c3cc4c(NC5CCS(=O)(=O)CC5)cccc4n3CC(F)(F)F)cc2)cc1 [Compound 16A, 4-cyano-N-[(4-{4-[(1,1-dioxo-1λ^6-thian-4-yl)amino]-1-(2,2,2-trifluoroethyl)-1H-indol-2-yl}phenyl)methyl]benzamide] | ++ (++ = 2 μM ≤ SC150 < 5 μM) |
